According to patent US20150306096A1, “8'-HYDROXY-DIHYDROERGOTAMINE COMPOUNDS AND COMPOSITIONS” (MAP Pharmaceuticals, Inc., priority 2012, published 2015):
Like-named read-outs stand apart in the source and are kept apart here.

Legend:
[1] = system: Glutamate (mGlu3/mGlu5/mG1u7); assay: Glutamate receptor aequorin / cAMP assays; type: cell-based, human; settings: mGlu receptors
Method: Additional receptor agonist/agonist activity assessments were performed using the 8′-OH DHE test compound. Table 12 contains a summary of the cell lines (CHO-K1/HEK293 transfected with relevant human receptor) and the assays performed to detect any agonist or antagonist activity. […]
For agonist testing, 30 μL of cell suspension was mixed with 30 μL of the test 8′-OH DHE compound or reference agonist in a 384-well plate. The resulting emission of light was recorded using the FDSS 6000 luminometer. […] The resulting emission of light was recorded using the FDSS 6000 luminometer.
Cells expressing the human recombinant receptor of interest were grown in media without antibiotic and detached by gentle flushing with PBS-EDTA (5 mM EDTA), recovered by centrifugation and resuspended in assay buffer (KRH: 5 mM KCl, 1.25 mM MgSO4, 124 mM NaCl, 25 mM HEPES, 13.3 mM glucose, 1.25 mM KH2PO4, 1.45 mM CaCl2, 0.5 g/L BSA). […] Lysis buffer was added and after one hour incubation, cAMP concentrations were determined according to the manufacturer specification with the HTRF kit. […] Lysis buffer was added and after 1 hour incubation, cAMP concentrations were determined according to the manufacturer specification, with the HTRF kit. […]

Calcitonin (AM1/AM2) = assay: cAMP HTRF assay; type: cell-based, human
Method: (§1) Additional receptor agonist/agonist activity assessments were performed using the 8′-OH DHE test compound. Table 12 contains a summary of the cell lines (CHO-K1/HEK293 transfected with relevant human receptor) and the assays performed to detect any agonist or antagonist activity.
(§2) Cells expressing the human recombinant receptor of interest were grown in media without antibiotic and detached by gentle flushing with PBS-EDTA (5 mM EDTA), recovered by centrifugation and resuspended in assay buffer (KRH: 5 mM KCl, 1.25 mM MgSO4, 124 mM NaCl, 25 mM HEPES, 13.3 mM glucose, 1.25 mM KH2PO4, 1.45 mM CaCl2, 0.5 g/L BSA). Dose response curves were performed in parallel with the reference compounds. For agonist tests (96-well plates), 12 μL of cells was mixed with 12 μL of the test 8′-OH DHE compound at increasing concentrations and then incubated for 30 minutes at RT. Lysis buffer was added and after one hour incubation, cAMP concentrations were determined according to the manufacturer specification with the HTRF kit. For antagonist tests (96-well plates), 12 μL of cells was mixed with 6 μL of the test 8′-OH DHE compound at increasing concentrations and then incubated for 10 minutes. […] Lysis buffer was added and after 1 hour incubation, cAMP concentrations were determined according to the manufacturer specification, with the HTRF kit. […]

[2] = system: Cholecystokinin (CCK1/CCK2); assay: Aequorin assay; type: cell-based, human; settings: CCK receptors
Method: as §1
(§3) Aequorin assays were conducted to monitor activity for 8′-OH DHE against the receptors indicated in Table 12 above (except for mGlu3 and mGlu5). CHO-K1 cells co-expressing mitochondrial apoaequorin and the recombinant human receptor of interest were grown to mid-log phase in culture media without antibiotics and then detached with PBS-EDTA, centrifuged and resuspended in assay buffer (DMEMHAM's F12 with HEPES, without phenol red+0.1% BSA, protease free) at a concentration of 1×10^6 cell/mL. Cells were incubated at RT for at least 4 hours with coelenterazine h. Reference agonistant/agonist was tested to evaluate the performance of the assay and to determine EC50/IC50.
(§4) 50 μL of the cell suspension was mixed with 50 μL of test or reference agonist in a 96-well plate. The resulting emission of light was recorded using Hamamatsu Functional Drug Screening System 6000 (FDSS 6000) luminometer. For antagonist testing, 100 μL of the reference agonist at its EC80 was injected on the mix of cells and test compound, following an incubation of 15 minutes after the first injection. The resulting emission of light was recorded using the FDSS 6000 luminometer. To standardize the emission of recorded light (and determine of the ‘100% signal’) across plates and across different experiments, some wells contained 100 μM digitonin or a saturating concentration of ATP (20 μM).

Neurokinin (NK1/NK2/NK3) = assay: Aequorin assay; type: cell-based, human; settings: Neurokinin receptors
Method: as §1, §3, §4

Orexin (OX1/OX2) = assay: Aequorin assay; type: cell-based, human; settings: Orexin receptors
Method: as §1, §3, §4

[3] = system: VIP/PACAP (PAC1/VPAC1/VPAC2); assay: Aequorin assay; type: cell-based, human; settings: VIP/PACAP receptors
Method: as §1, §3, §4

Adenosine A2a = target: T1, Adenosine A2a (Homo sapiens, UniProt P29274); assay: cAMP HTRF assay; type: cell-based
T1 construct: expressed in transfected cells; host or cells: HEK293
Method: as §1, §2

[4] = cited from earlier work

T1 sequence (P29274 whole entry): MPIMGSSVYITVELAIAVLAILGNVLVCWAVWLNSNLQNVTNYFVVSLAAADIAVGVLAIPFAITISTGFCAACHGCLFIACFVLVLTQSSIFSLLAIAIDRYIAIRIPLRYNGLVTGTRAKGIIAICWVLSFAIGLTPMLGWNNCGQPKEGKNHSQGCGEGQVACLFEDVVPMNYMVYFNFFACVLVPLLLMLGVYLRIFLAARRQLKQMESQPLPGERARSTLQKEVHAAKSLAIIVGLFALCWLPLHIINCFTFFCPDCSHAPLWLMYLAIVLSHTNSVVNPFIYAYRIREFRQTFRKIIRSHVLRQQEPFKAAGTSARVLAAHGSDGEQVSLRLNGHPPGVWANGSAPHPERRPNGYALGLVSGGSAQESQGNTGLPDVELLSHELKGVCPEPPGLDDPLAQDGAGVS

Structure (SMILES)	Activity (Agonism: EC50; Antagonism: IC50) [1]	Activity (Agonism: EC50; Antagonism: IC50) (Calcitonin (AM1/AM2))	Activity (Agonism: EC50; Antagonism: IC50) [2]	Activity (Agonism: EC50; Antagonism: IC50) (Neurokinin (NK1/NK2/NK3))	Activity (Agonism: EC50; Antagonism: IC50) (Orexin (OX1/OX2))	Activity (Agonism: EC50; Antagonism: IC50) [3]	Activity (Agonism: EC50; Antagonism: IC50) (Adenosine A2a)	fraction of dose extracted in the urine ([4]; IM administered dose)	bioavailability ([4]; IM) [%]	bioavailability ([4]; IN administration)	oral bioavailability ([4]; oral)
CN1C[C@H](C(=O)N[C@]2(C)O[C@@]3(O)[C@@H]4CCC(O)N4C(=O)[C@H](Cc4ccccc4)N3C2=O)C[C@@H]2c3cccc4[nH]cc(c34)C[C@H]21 (some centres unmarked) [8′-OH DHE, 8′-Hydroxy-Dihydroergotamine]	Inactive	Inactive	Inactive	Inactive	Inactive	Inactive	Inactive				
CN1C[C@H](C(=O)N[C@]2(C)O[C@@]3(O)[C@@H]4CCCN4C(=O)[C@H](Cc4ccccc4)N3C2=O)C[C@@H]2c3cccc4[nH]cc(c34)C[C@H]21 [DHE, Dihydroergotamine]								6-7%	100	about 40%	1-3%
